The values below come from patent US8263791B2, “Method and reagent for protein analysis” (National Institute of Advanced Industrial Science and …, priority 2008, dated 2012).

The nature of series [1]: Water solubility / precipitation in the staining solution. It is filed as physicochemical. The protocol:
After electrophoresis, the gel was immediately immersed in a solution (I) (purified water, 1% Tween80 aqueous solution, or 1% Tween20 aqueous solution) for a predetermined period of time (20 minutes or 30 minutes). Subsequently, the gel was transferred to another container and then a buffer (purified water/25 mM phosphate buffer (pH 2.5)/methanol=45/45/10 (v/v)) in which Compound 1 (100 μg/mL) had been dissolved was added. After being left to stand for 10 minutes, the gel was transferred to another container and then immersed in a solution (II) (purified water, 1% Tween80 aqueous solution, or 1% Tween20 aqueous solution) for decoloration.
(§1) Protein detection was carried out using Compound 1 and Compound 2 synthesized in Example 1 under analysis conditions described in Example 3. After electrophoresis, the gel was first immersed in 1% Tween80 aqueous solution for 20 minutes and then immersed in a buffer containing Compound 1 (60 μg/mL) or Compound 2 (60 μg/mL) for 10 minutes. Subsequently, the gel was transferred to and immersed in a container containing a 1% Tween80 aqueous solution for 30 minutes. […] The total time needed for treatment was 60 minutes. The gel was analyzed using a fluorescence imaging analyzer. When Compound 1 was used, bands containing 2.6 ng or more of proteins could be detected. Compared with the result, the detection limit was 20 ng in the case of Compound 2.
(§2) After electrophoresis, the gel was immediately immersed in distilled water for 20 to 30 minutes. Subsequently, the gel was transferred to another container and then a staining solution (distilled water:methanol=1:1 (v/v)) in which Compound 3 (100 μg/mL) had been dissolved was added. After 30 minutes of immersion, the gel was transferred to another container and then immersed in a wash solution (water:methanol=90:10 (v/v)) for decoloration. The gel was observed using a fluorescence imaging analyzer.

The target of the next series is T1, BSA (Bos taurus, UniProt P02769).
T1 construct: purchased PIERCE
Description: Evaluation of protein detection using Compound 3. Set-up: key to Detection: +: Band could be detected.; −: No band could be detected. The procedure: Protein samples were prepared as follows: Sample buffer (0.0625 M Tris-HCl (pH 6.8), 5% 2-mercaptoethanol, 2% SDS, 20% glycerol, and 0.005% BPB) was added to 2.0 mg/mL commercially available BSA (PIERCE). to dilute it to concentrations of 200, 60, 30, 12, 6, 3, and 0.2 ng/μL, respectively. These protein samples were heated at 80° C. for 5 minutes and then left to stand to cool.
Conditions for electrophoresis are as follows: • Electrophoresis apparatus: ERICA XVE-001C (DRC Co., Ltd.) • Polyacrylamide gel: XV PANTERA Gel (DRC Co., Ltd.) • Buffer for electrophoresis: electrophoresis buffer attached to XV PANTERA Gel • Fluorescence imaging analyzer: LS400 (TECAN GROUP LTD) • Excitation wavelength: 543 nm; detection wavelength: 590 nm.
Each of the above prepared samples was applied to a gel at 5 μL/well (1000, 300, 150, 60, 30, 15, and 1 ng/band, respectively), followed by electrophoresis.
as §2

Series [2] is described as follows: Measurement of maximum absorption wavelength and maximum fluorescence wavelength. It is filed as physicochemical. The conditions noted are these: 25 μg/mL in purified water. The protocol:
Compound 1 and Compound 2 were separately dissolved in purified water at a concentration of 25 μg/mL. The absorption spectra at a wavelength ranging from 200 nm to 800 nm and the fluorescence spectra at a wavelength ranging from 450 nm to 600 nm were measured. The absorption spectra were measured using U3310 (Hitachi High-Technologies Corporation) and the fluorescence spectra were measured using RF-1500 (Shimadzu Corporation).

In series [3] the test system is Protein Standard Mixture IV (ovotransferrin, albumin, ovalbumin, carboanhydrase, myoglobin, cytochrome C). Description: Evaluation of protein detection using Compound 1 and Compound 2 (staining after electrophoresis, Tween80). More on the design: key to Detection: +: All bands could be detected.; −: At least one band could not be detected. The conditions noted are these: compound 60 μg/mL. The protocol: Two (2) mL of a stock buffer (a mixture of purified water (4.2 mL), 0.5 M Tris-hydrochloric acid buffer (pH 8.6) (1.0 mL), glycerol (0.8 mL), 100 g/L sodium dodecyl sulfate (1.6 mL), and 2-mercaptoethanol (0.4 mL)) was added to 2 mg of a commercially available molecular weight marker (Protein Standard Mixture IV; Merck & Co., Inc.). The mixture was heated in boiling water for 2 minutes and then cooled. Thirty (30) μL each of the resultant was dispensed in a 0.5-mL microtube and then cryopreserved at −80° C. until the use thereof. A sample diluent (a mixture of purified water (3.8 mL), 0.5 M Tris-hydrochloric acid buffer (pH 8.6) (1.0 mL), glycerol (0.8 mL), 100 g/L sodium dodecyl sulfate (1.6 mL), and 5 g/L bromophenol blue (0.8 mL)) was added to the thawed molecular weight marker, so that a dilution series with protein concentrations ranging from 0.4 ng/μL to 200 ng/μL was prepared.
The marker contained, in terms of mass, equal amounts of ovotransferrin (78 kDa), albumin (66.3 kDa), ovalbumin (42.7 kDa), carboanhydrase (30 kDa), myoglobin (16.9 kDa), and cytochrome C (12.4 kDa).
• Electrophoresis apparatus: RAPIDAS-Mini-Slab electrophoresis chamber AE6450 (ATTO Corporation) • Polyacrylamide gel: Multigel II mini 10/20 (13W) (COSMO BIO Co., Ltd.) • Buffer for electrophoresis: 27.2 mM Tris (hydroxymethyl) aminomethane, 192 mM glycine, 3.5 mM Sodium dodecyl sulfate (pH 8.3) • Fluorescence imaging analyzer: Light capture II (ATTO Corporation)
Each sample of the dilution series prepared in (1) above was applied to a gel at 5 μL/well (lane 1: 167 ng of protein/band; lane 2: 83.3 ng/band; lane 3: 41.7 ng/band; lane 4: 20.8 ng/band; lane 5: 10.4 ng/band; lane 6: 5.2 ng/band; lane 7: 2.6 ng/band; lane 8: 1.3 ng/band; lane 9: 0.7 ng/band; and lane 10: 0.4 ng/band) and then subjected to electrophoresis with constant current of 30 mA for 45 minutes.
as §1

For series [4] the test system is unchanged. Briefly: Protein detection with staining carried out during electrophoresis. More on the design: key to Detection: +: All bands could be detected.; −: At least one band could not be detected. The conditions noted are these: compound 15 μg/mL in electrophoresis buffer. The procedure: Compound 1 or Compound 2 were dissolved in a buffer for electrophoresis (27.2 mM Tris (hydroxymethyl)aminomethane, 192 mM glycine, and 3.5 mM sodium dodecyl sulfate (pH 8.3)) at a concentration of 15 μg/mL. With the use of the above buffer, the other conditions identical to those described in Example 3 were employed to carry out electrophoresis. After completion of electrophoresis, the gel was transferred to a container containing 1% Tween80 aqueous solution, left to stand for 40 minutes, and then analyzed using a fluorescence imaging analyzer. When Compound 1 was used, bands containing 5.2 ng or more of a protein could be detected.

T1 sequence (P02769 25-607): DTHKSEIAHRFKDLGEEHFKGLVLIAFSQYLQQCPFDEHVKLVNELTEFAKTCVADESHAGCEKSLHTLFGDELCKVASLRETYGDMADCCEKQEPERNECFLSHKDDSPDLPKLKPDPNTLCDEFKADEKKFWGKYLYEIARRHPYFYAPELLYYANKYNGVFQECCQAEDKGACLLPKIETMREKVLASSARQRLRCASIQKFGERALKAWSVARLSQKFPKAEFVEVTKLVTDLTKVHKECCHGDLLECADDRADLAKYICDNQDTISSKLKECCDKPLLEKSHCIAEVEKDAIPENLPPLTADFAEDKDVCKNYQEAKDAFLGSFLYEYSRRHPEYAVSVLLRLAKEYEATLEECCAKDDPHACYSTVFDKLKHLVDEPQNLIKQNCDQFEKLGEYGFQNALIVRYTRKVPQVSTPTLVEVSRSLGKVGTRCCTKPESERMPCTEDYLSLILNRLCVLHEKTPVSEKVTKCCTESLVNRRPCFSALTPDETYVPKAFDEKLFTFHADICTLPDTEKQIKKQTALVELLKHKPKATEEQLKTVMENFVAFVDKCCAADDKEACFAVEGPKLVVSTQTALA

For the compound `CC1=CC(=C(C#N)C#N)C=C(/C=C/c2ccc(O)c3ccccc23)O1` [Compound 3], the Solubility in water result in series [1] is “hardly soluble in water”. Besides, in series [1] (100 μg/mL in distilled water:methanol=1:1), the “Precipitation in the staining solution during staining” value was “precipitated in the staining solution”. At BSA, the “Sensitivity lower than that of the compound of the present invention” value is at least 10 times. The Detection entry on BSA (BSA 1 ng/band, compound 100 μg/mL) is recorded as “−”; on BSA (BSA 15 ng/band, compound 100 μg/mL), “−”; on BSA (BSA 30 ng/band, compound 100 μg/mL) it was “+”; at BSA (BSA 60 ng/band, compound 100 μg/mL), “+”; on BSA (BSA 150 ng/band, compound 100 μg/mL) it was “+”; on BSA (BSA 300 ng/band, compound 100 μg/mL), “+”. On BSA (BSA 1000 ng/band, compound 100 μg/mL), the Detection entry is on record as “+”. Besides, the Protein detection sensitivity at BSA (BSA, compound 100 μg/mL) is given as 30 ng. For the same compound, the “False positive spots after washing step” value at BSA (wash solution water:methanol=90:10) was “insoluble matter adhering to the gel appeared as false positive spots”.
On to `CC1=CC(=C(C#N)C#N)C=C(/C=C/c2ccccc2S(=O)(=O)[O-])O1.[Na+]` [Compound 2, (E)-2-(2-(4-(dicyanomethylene)-6-methyl-4H-pyrane-2-yl)vinyl)sodium Benzenesulfonate], for which the “Excitation wavelength for maximum fluorescence” value in series [2] worked out at 440 nm. Further, the Maximum absorption wavelength in series [2] turned out to be 388 nm. This compound also gave a Maximum fluorescence wavelength in series [2] of 511 nm. Besides, the Detection result in series [3] (Lane 1, protein 167 ng/band) is “+”; in series [3] (Lane 2, protein 83.3 ng/band), “+”; in series [3] (Lane 3, protein 41.7 ng/band), “+”; in series [3] (Lane 4, protein 20.8 ng/band), “+”; in series [3] (Lane 5, protein 10.4 ng/band), “−”; in series [3] (Lane 6, protein 5.2 ng/band), “−”. Also, the Detection entry in series [3] (Lane 7, protein 2.6 ng/band) is listed as “−”; in series [3] (Lane 8, protein 1.3 ng/band), “−”; in series [3] (Lane 9, protein 0.7 ng/band), “−”; in series [3] (Lane 10, protein 0.4 ng/band) it was “−”; in series [4] (Lane 1, protein 167 ng/band), “−”; in series [4] (Lane 2, protein 83.3 ng/band), “−”. Further, the Detection entry in series [4] (Lane 3, protein 41.7 ng/band) was “−”; in series [4] (Lane 4, protein 20.8 ng/band), “−”; in series [4] (Lane 5, protein 10.4 ng/band), “−”; in series [4] (Lane 6, protein 5.2 ng/band) it was “−”; in series [4] (Lane 7, protein 2.6 ng/band), “−”; in series [4] (Lane 8, protein 1.3 ng/band), “−”. For the same compound, the Detection entry was “−” in series [4] (Lane 9, protein 0.7 ng/band) and “−” in series [4] (Lane 10, protein 0.4 ng/band). Also, the “Detection limit (protein per band that could be detected)” value in series [3] (1% Tween80 before and after staining) was 20 ng. For the same compound, the “Protein detection (in words)” value in series [4] (1% Tween80 40 minutes) is reported as “proteins other than cytochrome C could not be detected”.
